Data as given in patent US11951098B2, “Therapeutic agent for meibomian dysfunction” (SANTEN PHARMACEUTICAL CO., LTD., priority 2013, dated 2024).

Tests used:
[1] = system: HR-AD feed fed Hos: HR-1 series hairless mouse; test: Test using HR-AD feed fed hairless mouse; assay type: in vivo, Hos: HR-1 series hairless mice; settings: for Number of obstructive orifices: among eight orifices at centre of upper eyelid
Method: It has been known that a HR-AD feed is fed to Hos: HR-1 series hairless mouse, obstruction of the meibomian gland orifices similar to the signs/findings of MGD could be recognized (Japanese Patent Application No. 2012-137778). Thus, effects of sirolimus and deforolimus which are representative examples of the present compounds on the obstruction were investigated.
0.1% (w/v) sirolimus suspension: it was prepared by suspending in 0.01% (w/v) hydroxypropylmethyl cellulose.
0.1% (w/v) deforolimus suspension: it was prepared by suspending in 0.01% (w/v) hydroxypropylmethyl cellulose. Incidentally, deforolimus used in the present test was prepared according to the method described in JP 2005-516065A.
Six-weeks old male Hos: HR-1 series hairless mice were grouped into 5 mice of a normal feed fed group (CRF-1 feed, available from Oriental Yeast Co., Ltd.) and 15 mice of a HR-AD feed fed group (available from Nosan Corporation), and fed the normal feed or the HR-AD feed, respectively, which were spontaneously taken. After 28th day from initiation of the feeding, the meibomian gland orifices were observed by using a slit lamp, and a number of obstructive orifices among the eight meibomian gland orifices at the center of the upper eyelid was measured. Incidentally, the presence or absence of obstruction of the meibomian gland orifices was judged by the state whether the meibomian gland orifices were in a turbid and raised or not (see JP 2014-023526A).
Fifteen mice of the HR-AD feed fed group were grouped into a physiological saline solution-administered group, a 0.1% sirolimus suspension-administered group and a 0.1% deforolimus suspension-administered group (5 mice in each group), and from 29th day from initiation of the feeding, the physiological saline solution (2 μL/eye, twice a day), the 0.1% sirolimus suspension (2 μL/eye, twice a day) or the 0.1% (w/v) deforolimus suspension (2 μL/eye, twice a day) were dropped to the eye for 28 days. At 42nd day and 56th day after initiation of the feeding, a number of obstructions of the meibomian gland orifices was measured by using a slit lamp.

[2] = system: complete Freund's adjuvant administered rabbit; test: Test using complete Freund's adjuvant administered rabbit; assay type: in vivo, Japanese white rabbits; settings: average; for Score of telangiectasia: right upper eyelid, sum of three fractions
Method: In a complete Freund's adjuvant administered rabbit, telangiectasia around the meibomian gland orifices, and obstruction at the meibomian gland orifices, which are similar to the signs/findings of MGD can be recognized. Effects of sirolimus which was a representative example of the present compound on the telangiectasia and obstruction were investigated (see JP 2014-024835A).
0.1% (w/v) sirolimus suspension: it was prepared by suspending in 0.01% (w/v) hydroxypropylmethyl cellulose. Incidentally, with regard to sirolimus, that purchased from LKT Laboratories, Inc., (Catalog number: R0161) was used (which is the same in the following Examples).
10 μL of the complete Freund's adjuvant was administered to the right upper eyelid (3 portions) of about 2 kg of male Japanese white rabbits, respectively. After 4 days from provocation, around the meibomian gland orifices of the right upper eyelid was observed by using slit lamp, a score of telangiectasia and a score of obstruction at the meibomian gland orifices were judged.
Incidentally, with regard to the score of telangiectasia, in accordance with the criteria in the following Tables 1 and 2, the eyelid margin of the upper eyelid was equally divided to three fractions of the ear side, the center portion and the nose side, the score of telangiectasia around the meibomian gland orifices was judged with regard to the respective fractions, and the sum of the scores of the three fractions was calculated as a score per one eye. Here, the presence or absence of dilation of the capillaries was judged by the state whether the capillaries which cannot be usually recognized with naked eyes can be recognized or not as a result of dilation of the diameter of the blood vessel. Also, the presence or absence of obstruction of the meibomian gland orifices was judged by the state whether the meibomian gland orifices are in a turbid or not.
The rabbits were grouped into a physiological saline solution-administered group and a 0.1% sirolimus suspension-administered group, and tested with 7 or 8 eyes in each group so that fluctuation of the average value of the respective scores became small. After 5th day from provocation, a physiological saline solution (50 μL/eye, twice a day) or a 0.1% sirolimus suspension (50 μL/eye, twice a day) was dropped into the right eye for 10 days. After 11th and 15th days from provocation, around the meibomian gland orifices of the right upper eyelid was observed by using a slit lamp, whereby the score of telangiectasia was judged and the number of the obstructive orifices was measured.

[3] = 42nd day after initiation of the feeding, 0.1% (w/v) suspension 2 μL/eye twice a day from 29th day
[4] = 56th day after initiation of the feeding, 0.1% (w/v) suspension 2 μL/eye twice a day for 28 days
[5] = 11th day after provocation, 0.1% (w/v) suspension 50 μL/eye twice a day from 5th day
[6] = 15th day after provocation, 0.1% (w/v) suspension 50 μL/eye twice a day for 10 days

| Compound | Effect on number of the obstructions of the meibomian gland orifices (in words) ([1]; 0.1% suspension instilled, versus physiological saline group) | Number of obstructive orifices [1, 3] | Number of obstructive orifices [1, 4] | Score of obstruction of orifices [2, 5] | Score of telangiectasia [2, 5] | Score of obstruction of orifices [2, 6] | Score of telangiectasia [2, 6] |
| --- | --- | --- | --- | --- | --- | --- | --- |
| CO[C@H]1C[C@@H]2CC[C@@H](C)[C@@](O)(O2)C(=O)C(=O)N2CCCC[C@H]2C(=O)O[C@H]([C@H](C)C[C@@H]2CC[C@@H](OP(C)(C)=O)[C@H](OC)C2)CC(=O)[C@H](C)/C=C(\C)[C@@H](O)[C@@H](OC)C(=O)[C@H](C)C[C@H](C)/C=C/C=C/C=C/1C [0.1% Deforolimus suspension, deforolimus] | decreased | 2.7 | 2.2 |  |  |  |  |
| CO[C@H]1C[C@@H]2CC[C@@H](C)[C@@](O)(O2)C(=O)C(=O)N2CCCC[C@H]2C(=O)O[C@H]([C@H](C)C[C@@H]2CC[C@@H](O)[C@H](OC)C2)CC(=O)[C@H](C)/C=C(\C)[C@@H](O)[C@@H](OC)C(=O)[C@H](C)C[C@H](C)/C=C/C=C/C=C/1C [0.1% Sirolimus suspension, sirolimus] |  | 0.7 | 0.0 | 2.3 | 2.1 | 1.3 | 2.1 |
